Source: PMC10622577, “Structural basis for stabilisation of the RAD51 nucleoprotein filament by BRCA2” (Nature Communications, 2023)

Assays:
[1] = tested on: RAD51 nucleoprotein filaments; conditions: cited from earlier work
DNA = conditions: cited from earlier work
Source text: Our cryoEM maps let us model a highly conserved portion of BRCA2 TR2 that spans residues F3289 to C3304. TR2 sequence conservation extends N-terminally to our model, up to K3263. […] Indeed, the bi ...

RAD51 D184A NPFs = test: EMSA of TR2 titration on RAD51 D184A NPFs; format: binding, human
Experimental: (§1) To assess RAD51 nucleoprotein (NPF) formation, wild-type and mutant RAD51 proteins were incubated with DNA in buffer: 25 mM HEPES pH 7.5, 150 mM NaCl, 2 mM DTT, 2 mM ATP, 5 mM CaCl2 for 15 minutes at room temperature. For filament binding of the TR2 peptide or His6-MBP-TR2 protein, the RAD51 NPFs were incubated with TR2 for further 5 minutes at room temperature. For filament binding of BRC4, the BRC4 peptide was pre-mixed with RAD51 for 10 minutes at room temperature before addition of DNA. For experiments with mono-streptavidin (mSA)-capped DNA, mSA (Sigma) was added in 5× molar excess of biotin labels for 15 minutes at room temperature prior to the addition of RAD51. Concentrations are provided in figures and DNA sequences for each experiment are reported in Supplementary Table 1.
(§2) Before electrophoresis, samples were mixed with a 0.5:1 volume of 50% (w/v) sucrose solution and analysed on a pre-run 0.5% (w/v) agarose gel in 0.5× TB buffer at 35 V for 2.5 hours at 4 °C. DNA was visualised by excitation of the fluorescent tag or, in the case of unlabelled DNA, by SYBR Gold staining. Gels were imaged in a Typhoon FLA9000 by excitation at 473 nm for fluorescein-labelled DNA or SYBR Gold-stained gels, 532 nm excitation for Cy3-labelled DNA or 635 nm excitation for Cy5-labelled DNA.
(§3) Supplementary table 1. DNA oligos and peptides
(§4) Oligos Size (nt) Sequence (5’ – 3’)
(§5) D184A […] (forward), […]

wild-type RAD51 NPFs = test: EMSA of TR2 titration on wild-type RAD51 nucleoprotein filaments (NPFs); format: binding, human
Experimental: as §1, §2, §3, §4, §5

RAD51 NPFs = test: cryo-electron micrographs, bundling of RAD51 NPFs on uncapped DNA; parameters: species or system human; conditions: 1:0.5 molar ratio of TR2 peptide; uncapped ss- and dsDNA; two independent repeats
Source text: To understand the structural basis for the association of the BRCA2 C-terminus with the RAD51 nucleoprotein filament, we sought to determine the structure of a RAD51-DNA-TR2 filament by high-resolution cryo-electron microscopy (cryoEM). […] Individual filaments within a bundle appeared to be in translational register relative to each other as it was possible to obtain well-resolved 2D classes of filament pairs (Supplementary fig. 5A, Supplementary Table 1). Filament aggregation induced by TR2 complicated picking of individual filament particles and prevented structural determination by cryoEM. We therefore sought to develop a method to prepare RAD51 NPFs in the presence of TR2 peptide without causing filament bundling. We reasoned that bundling might be alleviated by capping the DNA substrate with a bulky tag, to prevent filament aggregation by steric interference. We therefore prepared ss- and dsDNA substrates with a biotin tag at either one end or both ends, that could be bound by monomeric streptavidin (mSA) (Supplementary Fig. 5B, Supplementary Table 1).
Fig. 2 BRCA2 TR2 induces bundling of RAD51 nucleoprotein filaments. A Cryo-electron micrographs of RAD51 NPFs formed on ssDNA and dsDNA in the presence of 1:0.5 molar ratio of TR2 peptide. Extensive NPF aggregation into bundles of aligned filaments is clearly visible (examples marked with dashed white boxes). Two independent repeats. […]

DDQKNCKKRRALDFLSRLPLPPPVSPICTFVSPAAQKAFQPPRSCGTKY [TR2, BRCA2 TR2 peptide spanning amino acids 3260 to 3308]
effect of TR2 binding on RAD51 NPFs [1]: stabilisation of RAD51 NPFs and formation of filament aggregates | protection of RAD51 NPFs from disassembly by BRC repeat 4 [1]: protection of RAD51 nucleoprotein filaments from disassembly by BRC repeat 4 of BRCA2 | DNA-binding activity of TR2 (DNA): harbours a DNA-binding activity centred on residues 3266-KKRR-3269 | reduction in TR2 binding, ssDNA versus dsDNA filaments (RAD51 D184A NPFs; EMSA, ssDNA compared with dsDNA): especially pronounced for filaments formed on ssDNA | TR2 binding relative to wild-type (RAD51 D184A NPFs; ss- and dsDNA, 25 mM HEPES pH 7.5, 150 mM NaCl, 2 mM ATP, 5 mM CaCl2, TR2 5 min, room temperature, ssDNA performed twice, dsDNA once): reduction in TR2 binding proportional to the decrease in charge at RAD51’s acidic patch | TR2 binding to wild-type RAD51 NPFs (filament formation and mobility) (wild-type RAD51 NPFs; 25 mM HEPES pH 7.5, 150 mM NaCl, 2 mM DTT, 2 mM ATP, 5 mM CaCl2, RAD51 + DNA 15 min, then TR2 5 min, room temperature, 0.5% agarose, fluorescein-labelled 60 nt ss- or dsDNA, ssDNA performed twice, dsDNA once): enhancement of filament formation accompanied by formation of larger species of reduced electrophoretic mobility | bundling of TR2-bound filaments in the gel (wild-type RAD51 NPFs; EMSA Fig. 1C, authors' response to reviewers): do not show bundling | bundling of RAD51 NPFs (RAD51 NPFs): extensive bundling of RAD51 NPFs with both ss- and dsDNA
